This assay concerns E. coli ATCC 11229. Description: Minimal inhibitory concentration (MIC), broth microdilution. Type of assay: cell-based. The conditions noted are these: Escherichia coli. As for the experimental part: It was cultivated in tryptic soy broth (TSB) (BD, Sparks, NV, USA) at 37 °C and subcultured three times before being used for antimicrobial activity assays.
MICs for Escherichia coli ATCC 11229 were determined using a broth microdilution protocol. Briefly, twofold dilutions of peptide solutions ([…]) were made in Mueller Hinton Broth (MHB) (Oxoid, Basingstoke, UK) in 96-well polypropylene clear round bottom microplates (Corning Inc., Corning, NY, USA). Bacteria were cultured for 18 h and then diluted in MHB broth and inoculated in the microplates so that the final inoculum in the wells was 5 × 10^5 CFU/mL. The final volumes in the wells were 200 μL. Plates were then incubated for 16 h at 37 °C. […] Chloramphenicol (Sigma-Aldrich, St. Louis, MI, USA) was used as a positive control to ensure the validity of the tests. […] MBCs were defined as the lowest peptide concentrations that inhibited 99.9% or more of bacterial growth based on the initial 5 × 10^5 CFU/mL inocula in the wells [66]. Three independent repetitions were completed, and two technical replicates were done for each independent repetition.
The impact of different salts on the antimicrobial activity of SJGAP and analogs thereof was tested by determining the effect on their MIC and MBC values. The same procedure as described above was used, but different concentrations of salts were added to the MHB medium in the microplates. To test the impact of monovalent cations, NaCl (Fisher Scientific, Fair Lawn, NJ, USA) and KCl (EMD, Gibbstown, NJ, USA) were tested at final concentrations of 50, 150, and 300 mM in the wells.
The stability of the peptides at elevated temperatures was also tested. Mixtures of the peptides solubilized in MHB medium were heated to 100 °C for 15 min in a water bath. After cooling in an ice water bath, the solutions were loaded into the microplates and inoculated with the tested bacteria to conduct the MIC and MBC assays. For all tested conditions, three independent repetitions and two technical replicates for each of these repetitions were completed.

The term MIC denotes the lowest concentration found to suppress growth.

Values after ≈ are worked out from the molar mass of the structure shown. Where two headings read alike, the source gives them in different places.

Take `O=C(N[C@H](CO)[C@H](O)c1ccc([N+](=O)[O-])cc1)C(Cl)Cl` [Chloramphenicol]: the MIC is, setting by setting: (ATCC11229, 16 h, MHB + 1 mM CaCl2, 16 h, 37 °C, 5 × 10^5 CFU/mL, three independent repetitions, n.a. = no activity, read-out: MIC) 8 µg/mL; (ATCC11229, MHB + 1 mM MgCl2, n.a. = no activity, read-out: MIC) 8 µg/mL; (ATCC11229, MHB + 5 mM CaCl2, n.a. = no activity, read-out: MIC) 8 µg/mL; (ATCC11229, MHB + 5 mM MgCl2, n.a. = no activity, read-out: MIC) 8 µg/mL; (ATCC11229, MHB + 10 mM CaCl2, n.a. = no activity, read-out: MIC) 8 µg/mL; (ATCC11229, MHB + 10 mM MgCl2, n.a. = no activity, read-out: MIC) 8 µg/mL. The MIC runs as follows: (ATCC11229, MHB + 50 mM KCl, n.a. = no activity, * very weak bacterial growth detected, read-out: MIC) 8 µg/mL; (ATCC11229, MHB + 50 mM NaCl, n.a. = no activity, * very weak bacterial growth detected, read-out: MIC) 8 µg/mL; (ATCC11229, MHB + 150 mM KCl, n.a. = no activity, * very weak bacterial growth detected, read-out: MIC) 4 µg/mL; (ATCC11229, MHB + 150 mM NaCl, n.a. = no activity, * very weak bacterial growth detected, read-out: MIC) 4 µg/mL; (ATCC11229, MHB + 300 mM KCl, n.a. = no activity, read-out: MIC) 2 µg/mL; (ATCC11229, MHB + 300 mM NaCl, n.a. = no activity, read-out: MIC) 4 µg/mL. The MIC (ATCC11229, […], peptide in MHB heated 100 °C, 15 min in water bath, cooled, then assayed, n.a. = no activity, read-out: MIC after heating treatment) turned out to be 8 µg/mL (≈ 24.8 µM); the MIC (ATCC11229, pH 5, MHB adjusted to pH 5 with 50 mM citrate buffer, * very weak bacterial growth detected, read-out: MIC) stood at 0.5 µg/mL (≈ 1.55 µM); the MIC (ATCC11229, pH 6, MHB adjusted to pH 6 with 50 mM citrate buffer, * very weak bacterial growth detected, read-out: MIC) came out at 2 µg/mL (≈ 6.19 µM); the MIC (ATCC11229, pH 7, MHB adjusted to pH 7 with 50 mM phosphate buffer, n.a. = no activity, read-out: MIC) amounted to 4 µg/mL (≈ 12.4 µM); the minimal inhibitory concentration (MIC) (ATCC11229, pH 8, MHB adjusted to pH 8 with 50 mM phosphate buffer, n.a. = no activity, read-out: MIC) was 4 µg/mL (≈ 12.4 µM); the MIC (ATCC11229, unmodified MHB (Ctrl −), n.a. = no activity, read-out: MIC) came to 8 µg/mL (≈ 24.8 µM).
